Assay [1] concerns the target α-Adrenoceptor. As to the kind of experiment: displacement of 3H-Yohimbine, α-adrenoceptor labelling. The format is binding. The source says: (§1) α-Adrenoceptor and dopamine receptors were labelled using methods similar to those previously reported [see S. Lazareno and S. R. Nahorski, Communication presented to Brit. Pharm. Soc., Bradford, 74 (1981), and P. Greengrass and R. Bremer, Eur. J. Pharmacol 55, 323 (1979)].
Background: In a radioligand displacement assay an active substance lowers the binding of a labelled ligand.

The target of assay [2] is T1, dopamine receptor (Rattus norvegicus, UniProt P61169).
T1 construct: from tissue
T1 sequence (P61169 whole entry): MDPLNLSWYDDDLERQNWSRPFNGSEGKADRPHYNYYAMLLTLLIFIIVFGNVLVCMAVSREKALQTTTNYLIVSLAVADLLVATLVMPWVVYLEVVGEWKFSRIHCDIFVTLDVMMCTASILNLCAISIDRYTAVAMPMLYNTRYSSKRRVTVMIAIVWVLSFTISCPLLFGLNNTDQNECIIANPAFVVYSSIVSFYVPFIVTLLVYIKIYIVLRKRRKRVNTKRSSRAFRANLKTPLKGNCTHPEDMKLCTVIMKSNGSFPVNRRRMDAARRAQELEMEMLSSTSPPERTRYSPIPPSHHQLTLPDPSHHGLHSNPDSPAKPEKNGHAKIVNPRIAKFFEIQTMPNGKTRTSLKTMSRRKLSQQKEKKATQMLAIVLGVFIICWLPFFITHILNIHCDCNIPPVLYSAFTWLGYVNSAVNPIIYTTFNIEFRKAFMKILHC
In words: displacement of 3H-Spiperone, dopamine receptor labelling. Format: binding.
From the text: as §1

For assay [3], the target named is T1, dopamine receptor. As to the kind of experiment: displacement of 3H-Domperidone, dopamine receptor labelling. The format is binding.
From the text: as §1

Assay [4] addresses α-Adrenoceptor. As to the kind of experiment: displacement of 3H-Prazosin, α-adrenoceptor labelling. Format: binding.
From the text: as §1

Assay [5] deals with presynaptic dopaminergic autoreceptors. As to the kind of experiment: Inhibition of Spontaneous Climbing in the Mouse. The format is in vivo. The note with it: 10 minute period commencing 3 minutes after administration; for % Inhibition of Spontaneous Climbing Behaviour in Mice: at 0.2 mg/kg subcutaneous; for ID50, Inhibition of Spontaneous Climbing Behaviour in Mice: subcutaneous. Here is the method: It is believed that this inhibitory effect is mediated by stimultion of presynaptic dopaminergic autoreceptors, i.e. receptors whose stimulation results in inhibition of dopamine synthesis and electrical activity of dopamine neurones. Spontaneous climbing behavior was assessed by the method of M. P. Martres et al., Brain Res. 136, 319 (1977).
This involves the monitoring of the frequency of climbing behaviour of mice in inverted food hoppers over a 10 minute period commencing 3 minutes after subcutaneous administration of compound.
A climb is defined as the mouse having all four feet off the ground. Experiments are carried out with a minimum of 5 groups of 10 mice, one group acting as control. […] The ID50 value is calculated using the Litchfield and Wilcoxon technique and is defined as the concentration of drug which would be expected to reduce spontaneous climbing of a group of mice by 50%.

The mark [6] stands for this setting: read-out: INHIBITION CONSTANT Ki, 3H-Yohimbine.
[7] abbreviates: 3H-Spiperone, read-out: INHIBITION CONSTANT Ki, 3H-Spiperone.
Where [8] appears, read: 3H-Domperidone, read-out: INHIBITION CONSTANT Ki, 3H-Domperidone.
Setting [9] is: read-out: INHIBITION CONSTANT Ki, 3H-Prazosin.

Where a name gives a salt, the structure may show the parent alone.

For `NC1CCc2c(ccc(O)c2O)C1` (stereo not drawn) [A-5,6-DTN], the inhibitory constant (Ki) (usually a dissociation constant, usually derived from enzyme kinetics or from competition with a known ligand) in assay [1] (setting [6]) was 690 nM; in assay [2] (setting [7]) it was 520 nM; in assay [3] (setting [8]), 240 nM; in assay [4] (setting [9]), 16000 nM.

As to `NC1CCc2cc(O)c(O)cc2C1` (stereo not drawn) [A-6,7-DTN], the Ki in assay [1] (read-out: […] Ki, 3H-Yohimbine) turned out to be 560 nM; in assay [2] it was 130 nM; in assay [3], 12 nM; in assay [4] (read-out: […] Ki, 3H-Prazosin), 10000 nM.

In the case of `Br.Oc1cccc(C2CCCN(Cc3c(Br)oc4ccccc34)C2)c1` (stereo not drawn) [Compound 11, 3-[1-(2-bromo-3-benzofurylmethyl)-3-piperidyl]phenol hydrobromide], the “% Inhibition of Spontaneous Climbing Behaviour in Mice” value (shortened to “% Inhibition”) in assay [5] is 24%.

As to `Oc1cccc(C2CCCN(Cc3coc4ccccc34)C2)c1` (stereo not drawn) [Compound 12, 3-[1-(3-Benzofurylmethyl)-3-piperidyl]phenol hydrobromide hemihydrate], the “% Inhibition” value in assay [5] is recorded as 23%.

With `Oc1cccc(C2CCCN(CCc3cc4ccccc4o3)C2)c1` (stereo not drawn) [Compound 13, 3-(1-[2-(2-Benzofuryl)ethyl]-3-piperidyl)phenol hydrobromide hemihydrate], in assay [5], the “ID50, Inhibition of Spontaneous Climbing Behaviour in Mice” value (from here on “ID50, Inhibition”) was 0.29 mg/kg.

For `Br.Oc1cccc(C2CCCN(Cc3cc4ccccc4o3)C2)c1` (stereo not drawn) [Compound 14, 3-[1-(2-benzofurylmethyl)-3-piperidyl]phenol hydrobromide], the “ID50, Inhibition” value in assay [5] stood at 1.7 mg/kg.

For the compound `Oc1cccc(C2CCCN(CC3Cc4ccccc4O3)C2)c1` (stereo not drawn) [Compound 30, 3-(1-[(2,3-Dihydro-2-benzofuranyl)methyl]-3-piperidinylphenol) hydrobromide hydrate], the Ki amounted to 13 nM in assay [1] (setting [6]), 200 nM in assay [2] (setting [7]), 48 nM in assay [3] (setting [8]) and 210 nM in assay [4] (setting [9]). For the same compound, the “ID50, Inhibition” value in assay [5] is 0.09 mg/kg.

For `Oc1cccc(C2CCCN(CCc3c[nH]c4ccccc34)C2)c1` (stereo not drawn) [Compound 34, 3-(1-[2-(1H-3-Indolyl)ethyl]-3-piperidyl)phenol], the “% Inhibition” value in assay [5] came to 52%.

These data come from patent publication US4460594A, “Bicyclo-hetero-alkylene-1-piperidines, pharmaceutical compositions thereof and methods of use thereof” (Beecham Group p.l.c., priority 1981, dated 1984).
